Laboratory results taken from ChEMBL document CHEMBL3593203, “The twin drug approach for novel nicotinic acetylcholine receptor ligands” (Bioorg Med Chem, 2015).

Experiments:
Mus musculus [1] = experiment: Antinociceptive activity in ip dosed mouse administered 30 mins prior to testing by hot plate test; type: functional
[2] = biological target: T1, Neuronal acetylcholine receptor; alpha4/beta2 (Rattus norvegicus, UniProt P09483+P12390); experiment: Displacement of [3H]-epibatidine from Sprague-Dawley rat brain alpha4beta2 nicotine acetylcholine receptor after 90 mins by radioligand displacement assay
T1 sequence (P09483 whole entry): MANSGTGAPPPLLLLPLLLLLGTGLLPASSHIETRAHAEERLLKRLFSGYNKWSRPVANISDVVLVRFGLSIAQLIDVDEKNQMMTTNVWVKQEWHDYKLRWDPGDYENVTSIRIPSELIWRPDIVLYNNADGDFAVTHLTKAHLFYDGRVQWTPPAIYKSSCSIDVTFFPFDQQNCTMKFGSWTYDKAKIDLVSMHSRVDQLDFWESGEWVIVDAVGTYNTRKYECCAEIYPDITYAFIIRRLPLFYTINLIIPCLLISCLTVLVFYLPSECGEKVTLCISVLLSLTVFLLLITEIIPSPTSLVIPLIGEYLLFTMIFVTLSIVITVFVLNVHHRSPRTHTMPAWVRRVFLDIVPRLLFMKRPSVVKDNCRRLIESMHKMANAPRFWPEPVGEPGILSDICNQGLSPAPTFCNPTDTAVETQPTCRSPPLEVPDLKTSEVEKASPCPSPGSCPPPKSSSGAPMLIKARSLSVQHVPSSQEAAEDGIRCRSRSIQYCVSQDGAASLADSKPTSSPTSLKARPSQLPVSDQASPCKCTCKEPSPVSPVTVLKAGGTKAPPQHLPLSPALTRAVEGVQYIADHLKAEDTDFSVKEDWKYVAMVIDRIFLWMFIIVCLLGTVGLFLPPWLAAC
T1 sequence (P12390 whole entry): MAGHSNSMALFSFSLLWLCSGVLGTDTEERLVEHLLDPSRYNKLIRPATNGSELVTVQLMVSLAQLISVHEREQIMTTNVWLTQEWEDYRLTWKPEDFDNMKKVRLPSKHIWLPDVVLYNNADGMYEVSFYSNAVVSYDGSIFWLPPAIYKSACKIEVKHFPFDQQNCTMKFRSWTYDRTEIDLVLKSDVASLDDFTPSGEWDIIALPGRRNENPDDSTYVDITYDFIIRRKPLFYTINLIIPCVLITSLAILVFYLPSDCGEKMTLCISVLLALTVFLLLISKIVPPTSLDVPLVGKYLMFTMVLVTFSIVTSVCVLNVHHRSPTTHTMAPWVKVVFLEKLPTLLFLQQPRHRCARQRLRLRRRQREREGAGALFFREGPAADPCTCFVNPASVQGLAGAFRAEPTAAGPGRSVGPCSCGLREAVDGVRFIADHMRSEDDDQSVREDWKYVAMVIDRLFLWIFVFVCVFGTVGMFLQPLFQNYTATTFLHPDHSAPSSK

[3] = Displacement of Torpedo californica electroplax muscle type (alpha1)2beta1gammadelta nicotine acetylcholine receptor (unknown origin) after 90 mins by radioligand displacement assay; design: species or system Tetronarce californica
[4] = biological target: T2, Neuronal acetylcholine receptor subunit alpha-7 (Rattus norvegicus, UniProt Q05941); experiment: Displacement of [3H]-MLA from Sprague-Dawley rat brain alpha7 nicotine acetylcholine receptor after 90 mins by radioligand displacement assay
T2 sequence (Q05941 whole entry): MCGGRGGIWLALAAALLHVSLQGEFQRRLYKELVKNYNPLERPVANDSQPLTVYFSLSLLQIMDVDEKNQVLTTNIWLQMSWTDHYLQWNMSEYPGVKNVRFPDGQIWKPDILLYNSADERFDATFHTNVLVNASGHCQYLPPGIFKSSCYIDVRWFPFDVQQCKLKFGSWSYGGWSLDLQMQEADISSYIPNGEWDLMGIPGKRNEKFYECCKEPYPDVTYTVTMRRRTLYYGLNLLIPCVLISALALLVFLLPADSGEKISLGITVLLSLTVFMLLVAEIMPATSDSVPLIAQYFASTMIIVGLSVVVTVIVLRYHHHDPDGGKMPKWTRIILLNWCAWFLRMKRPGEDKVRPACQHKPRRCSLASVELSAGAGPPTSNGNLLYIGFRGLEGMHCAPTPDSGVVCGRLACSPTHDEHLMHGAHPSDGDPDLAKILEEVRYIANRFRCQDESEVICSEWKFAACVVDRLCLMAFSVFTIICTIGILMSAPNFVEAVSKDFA

[5] = biological target: T1, Neuronal acetylcholine receptor; alpha4/beta2; experiment: Displacement of [3H]-nicotine from alpha4beta2 nicotine acetylcholine receptor in rat brain membranes after 90 mins by liquid scintillation spectrometric analysis; type: cell membranes, Membrane
Mus musculus [6] = experiment: Antinociceptive activity in sc dosed ICR mouse administered 5 mins prior to testing by tail-flick method; type: functional
[7] = biological target: T2, Neuronal acetylcholine receptor subunit alpha-7; experiment: Displacement of [3H]-MLA from alpha7 nicotine acetylcholine receptor in rat brain minus cerebellum after 60 mins by scintillation counting analysis; type: tissue-based

c1cncc(N2CC3CNCC(C3)C2)c1
MED (Mus musculus [1]): 1.9 µmol/kg

CN(C)CCOc1cncc(-c2cncc(OCCN(C)C)c2)c1
Ki [2]: 0.29 µM
Ki [3]: 0.905 µM
Ki [4]: > 1 µM

CN(C)CCOc1cncc(N2CC3CNCC(C3)C2)c1
Ki [2]: 0.000188 µM
Ki [3]: > 1 µM
Ki [4]: > 1 µM

CN(C)CCOc1cc(F)cc(N2CC3CNCC(C3)C2)c1
Ki [2]: 0.186 µM
Ki [3]: > 1 µM
Ki [4]: > 1 µM

CN(C)CCOc1cncc(N2CCCNCC2)c1
Ki [2]: 0.0069 µM
Ki [3]: > 1 µM
Ki [4]: > 1 µM

CN(C)CCOc1cc(F)cc(N2CCCNCC2)c1
Ki [2]: > 1 µM

CN(C)CCOc1cc(N2CCCNCC2)cc(F)c1F
Ki [2]: > 1 µM

CN(C)CCOc1cncc(N2CCCN(C)CC2)c1
Ki [2]: 0.212 µM

CN(C)CCOc1cc(F)cc(N2CCCN(C)CC2)c1
Ki [2]: > 1 µM

CN(C)CCOc1cc(N2CCCN(C)CC2)cc(F)c1F
Ki [2]: > 1 µM

CN(C)CCOc1cncc(N2CCNCC2)c1
Ki [2]: 0.145 µM
Ki [3]: > 1 µM
Ki [4]: > 1 µM

CN(C)CCOc1cc(F)cc(N2CCNCC2)c1
Ki [2]: > 1 µM

CN(C)CCOc1cc(N2CCNCC2)cc(F)c1F
Ki [2]: > 1 µM

CN(C)CCOc1cncc(N2CCN(C)CC2)c1
Ki [2]: 0.0668 µM
Ki [3]: > 1 µM
Ki [4]: > 1 µM

CN(C)CCOc1cc(F)cc(N2CCN(C)CC2)c1
Ki [2]: > 1 µM

CN(C)CCOc1cc(N2CCN(C)CC2)cc(F)c1F
Ki [2]: > 1 µM

CN(C)CCOc1cncc(N2CCC2)c1
Ki [2]: 0.784 µM
Ki [4]: > 1 µM

CN(C)CCOc1cncc(N2CCCC2)c1
Ki [2]: > 1 µM
Ki [4]: > 1 µM

CN(C)CCOc1cncc(N2CCCCC2)c1
Ki [2]: > 1 µM
Ki [4]: > 1 µM

CN(C)CCOc1cncc(N2CCOCC2)c1
Ki [2]: > 1 µM

CN(C)CCOc1cncc(N2CCC(O)CC2)c1
Ki [2]: 0.613 µM
Ki [4]: > 1 µM

CN1CCCC1c1cncc(C2CCCN2C)c1 (stereo not given)
Ki [5]: 1.18 µM

CN(C)CCOc1cccnc1
ED50 (Mus musculus [6]): 15 mg/kg

CCN(CC)CCOc1ccc2c(c1)C(=O)c1cc(OCCN(CC)CC)ccc1-2 [TILORONE]
Ki [7]: 0.11 µM
